Laboratory results: ChEMBL document CHEMBL1153101, “Hit to lead studies on (hetero)arylpyrimidines--agonists of the canonical Wnt-beta-catenin cellular messaging system” (Bioorg Med Chem Lett, 2010)
Values after ≈ are worked out from the molar mass of the structure shown. Each block holds one compound with its values, some of them ahead of it. Active and inactive are the calls of the source. The rule behind the calls is not given here.

Assays:
[1] = Activation of Wnt-3a/Dkk-1 expressed in human U2OS cells by TCF-luciferase assay; format: cell-based
[2] = tested on: U2OS; test: Activation of Wnt-3a/Dkk-1 expressed in human U2OS cells at 20 uM by TCF-luciferase assay relative to control; format: cell-based
[3] = tested on: Mus musculus; test: Osteogenic activity in wild type C57BL/6 mouse calvaria in vivo assessed as non phosphorylated beta-catenin at 0.3 mg/kg/day by immunohistochemistry
[4] = Inhibition of Wnt-3a/Dkk-1-mediated [32P]GSk3beta phosphorylation in human U2OS cells at 20 uM by TCF-luciferase assay relative to control; format: cell-based
[5] = tested on: Mus musculus; test: Osteogenic activity in wild type C57BL/6 mouse calvaria in vivo assessed as increase in mineral apposition rate at 0.1 mg/kg/day by histomorphometry measurement
[6] = tested on: Mus musculus; test: Osteogenic activity in wild type C57BL/6 mouse calvaria in vivo assessed as increase in mineral apposition rate at 0.03 mg/kg/day by histomorphometry measurement
[7] = tested on: Mus musculus; test: Osteogenic activity in wild type C57BL/6 mouse calvaria in vivo assessed as non phosphorylated beta-catenin at 1 mg/kg/day by immunohistochemistry
[8] = Metabolic stability in rat liver microsomes; format: ADME, Microsome
[9] = Aqueous solubility of the compound; format: physicochemical
[10] = Permeability by PAMPA; format: ADME; details: read-out: permeability

Compound: Cc1[nH]c2ccc(O)cc2c1CCNc1nccc(-c2cccnc2)n1
EC50 [1]: 12.2 µM | fold change (FC) [2]: 5.1

Compound: c1cncc(CCNc2nccc(-c3ccncc3)n2)c1
EC50 [1]: 4.6 µM | fold change (FC) [2]: 2.8

Compound: NC(=O)Cn1cnc(C[C@@H](CO)Nc2nccc(-c3ccc4ccccc4c3)n2)c1
fold change (FC) [2]: 3.9

Compound: c1cc(CCNc2nccc(-c3ccncc3)n2)ccn1
EC50 [1]: 6.8 µM | fold change (FC) [2]: 4.3

Compound: c1cncc(-c2ccnc(NCCc3c[nH]cn3)n2)c1
EC50 [1]: 28.8 µM | fold change (FC) [2]: 3.1

Compound: N#CCCn1cnc(C[C@@H](CO)Nc2nccc(-c3cc4ccccc4s3)n2)c1
fold change (FC) [2]: 4.1

Compound: O=[N+]([O-])c1cccc(-c2ccnc(NCCCn3ccnc3)n2)c1
EC50 [1]: 46.3 µM | fold change (FC) [2]: 3.6

Compound: c1cc(-c2ccnc(NCCCn3ccnc3)n2)ccn1
Activity [3]: Active | IC50 [4]: 51 µM | EC50 [1]: 4.2 µM | Activity [5]: Active | Activity [6]: Active | fold change (FC) [2]: 2.9 | Activity [7]: Active

Compound: c1cncc(-c2ccnc(NCCCn3ccnc3)n2)c1
EC50 [1]: 8.8 µM | fold change (FC) [2]: 4.7

Compound: N#CCCn1cnc(C[C@@H](CO)Nc2nccc(-c3ccc4ccccc4c3)n2)c1
fold change (FC) [2]: 5.5

Compound: OC[C@H](Cc1cn(Cc2cc(F)cc(F)c2)cn1)Nc1nccc(-c2ccc3ccccc3c2)n1
fold change (FC) [2]: 2

Compound: c1cncc(-c2ccnc(NCCc3ccncc3)n2)c1
EC50 [1]: 20.2 µM | fold change (FC) [2]: 3.4

Compound: C#CCOC[C@H](Cc1c[nH]cn1)Nc1nccc(-c2cc3ccccc3s2)n1
fold change (FC) [2]: 3.5

Compound: Cc1cc(C)n(CCCNc2nccc(-c3ccncc3)n2)n1
EC50 [1]: 29.6 µM | fold change (FC) [2]: 2.1

Continued, in another order:

EC50 [1]: 20.8 µM
Compound: C=C1CCCCC1OC[C@H](Cc1c[nH]cn1)Nc1nccc(-c2ccc3ccccc3c2)n1 (stereo partly drawn)
fold change (FC) [2]: 2.2

EC50 [1]: 4.1 µM
Compound: c1cncc(-c2ccnc(NCCc3c[nH]c4ccccc34)n2)c1
fold change (FC) [2]: 10

EC50 [1]: 16 µM
Compound: OC[C@H](Cc1cn(Cc2cc(F)cc(F)c2)cn1)Nc1nccc(-c2cc3ccccc3s2)n1
fold change (FC) [2]: 1.7

EC50 [1]: 14.4 µM
Compound: CCOC[C@H](Cc1c[nH]cn1)Nc1nccc(-c2ccc3ccccc3c2)n1
fold change (FC) [2]: 1.9

EC50 [1]: 2.7 µM
Compound: c1ccc2c(CCNc3nccc(-c4ccncc4)n3)c[nH]c2c1
fold change (FC) [2]: 7.5

EC50 [1]: 10.9 µM
Compound: Fc1c(COC[C@H](Cc2c[nH]cn2)Nc2nccc(-c3ccc4ccccc4c3)n2)cccc1C(F)(F)F
fold change (FC) [2]: 1.6

EC50 [1]: 3.3 µM
Compound: c1ccc2sc(-c3ccnc(NCCc4c[nH]cn4)n3)cc2c1
fold change (FC) [2]: 3.7

half-life [8]: ≥ 1.33 h | EC50 [1]: 6.8 µM | solubility [9]: 65 µg/mL (≈ 188 µM) | Papp [10]: 0.13 ×10⁻⁶ cm/s
Compound: OC[C@H](Cc1c[nH]cn1)Nc1nccc(-c2ccc3ccccc3c2)n1
Activity [5]: Active | Activity [6]: Active | fold change (FC) [2]: 4.9

EC50 [1]: 12.1 µM
Compound: c1ccc2cc(-c3ccnc(NCCc4c[nH]cn4)n3)ccc2c1
fold change (FC) [2]: 1.1

EC50 [1]: 14.6 µM
Compound: C#CCn1cnc(C[C@@H](CO)Nc2nccc(-c3cc4ccccc4s3)n2)c1
fold change (FC) [2]: 3
